Drawing on US10087188B2, “Benzamide imidazopyrazine Btk inhibitors” (MERCK SHARP & DOHME CORP., priority 2014, dated 2018), this text covers IC50 for 21 compounds.

The target in experiment [1] is BTK enzyme (recombinant full-length BTK, hBTK) (Homo sapiens (Human), UniProt Q06187). The experiment in a line: Btk enzyme activity assay, LANCE TR-FRET. As to conditions: 50 pM hBTK, 2 μM biotin-A5-peptide, 25 μM ATP; 60 minute compound & enzyme incubation; read-out: BTK binding IC50. It counts as biochemical. As for the experimental part: Btk Enzyme Activity Assay Methods
BTK enzyme (recombinant full-length BTK, hBTK), sequence (Q06187 whole entry): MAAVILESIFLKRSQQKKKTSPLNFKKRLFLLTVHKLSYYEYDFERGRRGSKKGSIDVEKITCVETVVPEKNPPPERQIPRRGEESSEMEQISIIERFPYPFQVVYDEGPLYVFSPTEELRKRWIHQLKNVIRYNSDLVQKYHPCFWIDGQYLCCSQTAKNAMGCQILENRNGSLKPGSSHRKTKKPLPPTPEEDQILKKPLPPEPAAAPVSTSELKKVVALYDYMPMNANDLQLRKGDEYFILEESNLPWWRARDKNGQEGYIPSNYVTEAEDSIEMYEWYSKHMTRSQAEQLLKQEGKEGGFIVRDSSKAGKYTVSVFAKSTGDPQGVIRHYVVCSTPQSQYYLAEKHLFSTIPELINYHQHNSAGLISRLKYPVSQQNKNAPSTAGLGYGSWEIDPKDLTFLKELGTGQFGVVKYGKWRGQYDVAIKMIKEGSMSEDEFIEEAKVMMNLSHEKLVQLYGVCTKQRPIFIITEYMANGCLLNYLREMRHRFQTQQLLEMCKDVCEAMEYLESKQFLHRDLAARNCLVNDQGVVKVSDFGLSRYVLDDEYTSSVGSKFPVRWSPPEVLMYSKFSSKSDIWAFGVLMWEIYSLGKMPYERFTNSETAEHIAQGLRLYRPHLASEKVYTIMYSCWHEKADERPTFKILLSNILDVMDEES
BTK enzymatic activity was determined with the LANCE (Lanthanide Chelate Excite) TR-FRET (Time-resolved fluorescence resonance energy transfer) assay. […] After 60 minutes incubation with detection reagents, reaction plates were read on a PerkinElmer EnVision plate reader using standard TR-FRET protocol.

For the next experiment, the system named is HeLa cells. The experiment in a line: [3H] Adenosine uptake assay. Particulars: accumulation of tritiated adenosine into HeLa cells, compound concentration range 10 μM to 0.032 nM, read-out: ADU inhibition IC50 (adenosine uptake inhibition potency). It counts as cell-based. The procedure, abridged:
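Accumulation of tritiated adenosine in adherent HeLa cells, detected by scintillant-plate coincidence counting, gives IC50 via 4-parameter robust fit. Compound (constant 0.25% DMSO) applied 30 min ahead, then 60 min radiolabel exposure (added from 500 nM solution), ambient conditions, HBSS with 5% FBS.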

Like-named read-outs stand apart in the source and are kept apart here.

Turning to `C[C@@]1(C(=O)O)CC[C@@](C)(c2nc(-c3ccc(C(=O)Nc4cc(C(F)(F)F)ccn4)cc3)c3c(N)nccn23)C1` [Example 79, (1R,3R)-3-[8-amino-1-(4-{[4-(trifluoromethyl)pyridin-2-yl]carbamoyl}phenyl)imidazo[1,5-a]pyrazin-3-yl]-1,3-dimethylcyclopentane carboxylic acid], the IC50 (usually the concentration that inhibits the measured activity by half) in experiment [1] was determined as 0.73 nM; in the experiment with HeLa cells (Homo sapiens, HeLa), 1590 nM.

Consider `COc1cc(C(=O)Nc2cc(C(F)(F)F)ccn2)ccc1-c1nc([C@H]2CN(C(=O)C34CC(C(=O)O)(C3)C4)[C@@H](C)CO2)n2ccnc(N)c12` [Example 177, 3-({(2R,5S)-2-[8-amino-1-(2-methoxy-4-{[4-(trifluoromethyl)pyridin-2-yl]carbamoyl}phenyl)imidazo [1,5-a]pyrazin-3-yl]-5-methylmorpholin-4-yl}carbonyl)bicyclo[1.1.1] pentane-1-carboxylic acid], for which the IC50 in experiment [1] worked out at 0.76 nM; in the experiment with HeLa cells (Homo sapiens, HeLa), 10000 nM.

As for `CC(C)[C@]1(C(=O)O)CC[C@H](c2nc(-c3ccc(C(=O)Nc4cc(C(F)(F)F)ccn4)cc3Cl)c3c(N)nccn23)C1` [Example 92, (1S,3S)-3-[8-amino-1-(2-chloro-4-{[4-(trifluoromethyl)pyridin-2-yl]carbamoyl}phenyl)imidazo[1,5-a]pyrazin-3-yl]-1-(1-methylethyl) cyclopentane-carboxylic acid], the IC50 in experiment [1] was 0.51 nM; in the experiment with HeLa cells (Homo sapiens, HeLa), 3240 nM.

As for `C[C@]1(C(=O)O)CC[C@](C)(c2nc(-c3ccc(C(=O)Nc4cc(C(F)(F)F)ccn4)cc3)c3c(N)nccn32)CC1` [Example 30, trans-4-(8-amino-1-(4-((4-(trifluoromethyl)pyridin-2-yl)carbamoyl)phenyl)imidazo[1,5-a]pyrazin-3-yl)-1,4-dimethylcyclohexanecarboxylic acid], the IC50 in experiment [1] is 0.74 nM; in the experiment with HeLa cells (Homo sapiens, HeLa) it was 1450 nM.

Turning to `CC(C)C1(C(=O)O)CCC(C)(c2nc(-c3ccc(C(=O)Nc4cc(C(F)(F)F)ccn4)cc3)c3c(N)nccn23)C1` (stereo not drawn) [Example 146, 3-[8-amino-1-(4-{[4-(trifluoromethyl)pyridin-2-yl]carbamoyl}phenyl)imidazo[1,5-a]pyrazin-3-yl]-3-methyl-1-(1-methylethyl) cyclopentane-carboxylic acid], the IC50 in experiment [1] is 456 nM; with HeLa cells, 10000 nM.

In the case of `CC1(C)[C@@H](c2nc(-c3ccc(C(=O)Nc4cc(C(F)(F)F)ccn4)cc3)c3c(N)nccn23)CC[C@@]1(C)C(=O)O` [Example 77, (1R,3S)-3-[8-amino-1-(4-{[4-(trifluoromethyl)pyridin-2-yl]carbamoyl}phenyl)imidazo[1,5-a]pyrazin-3-yl]-1,2,2-trimethylcyclopentane carboxylic acid], the IC50 in experiment [1] worked out at 4.6 nM; in the experiment with HeLa cells (Homo sapiens, HeLa), 3920 nM.

In the case of `Nc1nccn2c(-c3ccc(C(=O)O)cc3)nc(-c3ccc(C(=O)Nc4cc(C(F)(F)F)ccn4)cc3)c12` [Example 26, 4-[8-amino-1-(4-{[4-(trifluoromethyl)pyridin-2-yl]carbamoyl}phenyl)imidazo[1,5-a]pyrazin-3-yl]benzoic acid], the IC50 was found to be 0.97 nM in experiment [1] and 5580 nM in the experiment with HeLa cells (Homo sapiens, HeLa).

As to `CC1(C)[C@@H](C(=O)O)CC[C@]1(C)c1nc(-c2ccc(C(=O)Nc3cc(C(F)(F)F)ccn3)cc2)c2c(N)nccn12` [Example 147, (1S,3S)-3-[8-amino-1-(4-{[4-(trifluoromethyl)pyridin-2-yl]carbamoyl}phenyl)imidazo[1,5-a]pyrazin-3-yl]-2,2,3-trimethylcyclopentane carboxylic acid], the IC50 in experiment [1] is 7 nM; in the experiment on HeLa cells (Homo sapiens, HeLa), 10000 nM.

As for `CCOc1cc(C(=O)Nc2cc(C(F)(F)F)ccn2)ccc1-c1nc(C23CCC(C(=O)O)(CC2)CC3)n2c(F)cnc(N)c12` [Example 173, 4-[8-amino-1-(2-ethoxy-4-{[4-(trifluoromethyl)pyridin-2-yl]carbamoyl}phenyl)-5-fluoroimidazo[1,5-a]pyrazin-3-yl]bicyclo[2.2.2] octane-1-carboxylic acid], the IC50 in experiment [1] is 2 nM; in the experiment on HeLa cells (Homo sapiens, HeLa) it was 10000 nM.

`CCOc1cc(C(=O)Nc2cc(C(F)(F)F)ccn2)ccc1-c1nc(C23CCC(C(=O)O)(CC2O)C(O)C3)n2ccnc(N)c12` (stereo not drawn) [Example 174, 4-(8-amino-1-(2-ethoxy-4-((4-(trifluoromethyl)pyridin-2-yl)carbamoyl)phenyl)imidazo[1,5-a]pyrazin-3-yl)-2,5-dihydroxybicyclo[2.2.2]octane-1-carboxylic acid]: the IC50 in experiment [1] was found to be 3.9 nM; in the experiment with HeLa cells (Homo sapiens, HeLa) it was 10000 nM.

`CC(C)(C(=O)O)N1CCC[C@@H](c2nc(-c3ccc(C(=O)Nc4cc(C(F)(F)F)ccn4)cc3F)c3c(N)nccn23)C1` [Example 186, 2-{(3R)-3-[8-amino-1-(2-fluoro-4-{[4-(trifluoromethyl)pyridin-2-yl]carbamoyl}phenyl)imidazo [1,5-a]pyrazin-3-yl]piperidin-1-yl}-2-methylpropanoic acid]: the IC50 in experiment [1] worked out at 9.4 nM; in the experiment with HeLa cells (Homo sapiens, HeLa), 1240 nM.

Consider `Nc1nccn2c([C@@H]3CCCN(C(=O)C4CC4C(=O)O)C3)nc(-c3ccc(C(=O)Nc4cc(C(F)(F)F)ccn4)cc3)c12` (stereo partly drawn) [Example 150, 2-({(3R)-3-[8-amino-1-(4-{[4-(trifluoromethyl)pyridin-2-yl]carbamoyl}phenyl)imidazo[1,5-a]pyrazin-3-yl]piperidin-1-yl}carbonyl) cyclopropane-carboxylic acid], for which the IC50 in experiment [1] was 1.3 nM; with HeLa cells (Homo sapiens, HeLa), 6650 nM.

Regarding `CCOc1cc(C(=O)Nc2cc(C(F)(F)F)ccn2)ccc1-c1nc(C23CCCC(C(=O)O)(CC2)CC3)n2ccnc(N)c12` [Example 67, 5-[8-amino-1-(2-ethoxy-4-{[4-(trifluoromethyl)pyridin-2-yl]carbamoyl}phenyl)imidazo[1,5-a]pyrazin-3-yl]bicyclo[3.2.2] nonane-1-carboxylic acid], the IC50 in experiment [1] is 0.39 nM; in the experiment on HeLa cells (Homo sapiens, HeLa) it was 4910 nM.

As to `C[C@]1(C(=O)O)CCN(c2nc(-c3ccc(C(=O)Nc4cc(C(F)(F)F)ccn4)cc3)c3c(N)nccn23)C1` [Example 45, (3S)-1-[8-amino-1-(4-{[4-(trifluoromethyl)pyridin-2-yl]carbamoyl}phenyl)imidazo[1,5-a]pyrazin-3-yl]-3-methylpyrrolidine-3-carboxylic acid], the IC50 in experiment [1] came out at 1.4 nM; in the experiment with HeLa cells (Homo sapiens, HeLa), 10000 nM.

Turning to `CCOc1cc(C(=O)Nc2cc(C(F)(F)F)ccn2)ccc1-c1nc([C@H]2CC[C@@](C(=O)O)(C(C)C)C2)n2c(Cl)cnc(N)c12` [Example 111, (1S,3S)-3-[8-amino-5-chloro-1-(2-ethoxy-4-{[4-(trifluoromethyl)pyridin-2-yl]carbamoyl}phenyl)imidazo[1,5-a]pyrazin-3-yl]-1-(1-methylethyl) cyclopentane-carboxylic acid], the IC50 is 24.9 nM in experiment [1] and 10000 nM in the experiment on HeLa cells (Homo sapiens, HeLa).

Turning to `CC(C)(C(=O)O)C1CCC(c2nc(-c3ccc(C(=O)Nc4cc(C(F)(F)F)ccn4)cc3)c3c(N)nccn23)C1` (stereo not drawn) [Example 97, 2-{3-[8-amino-1-(4-{[4-(trifluoromethyl)pyridin-2-yl]carbamoyl}phenyl)imidazo[1,5-a]pyrazin-3-yl]cyclopentyl}-2-methylpropanoic acid], the values for the IC50 (in experiment [1]; with HeLa cells) were 0.87 nM and 7530 nM, respectively.

Take `Nc1nccn2c(N3CC[C@@H](C(=O)O)C3)nc(-c3ccc(C(=O)Nc4cc(C(F)(F)F)ccn4)cc3)c12` [Example 36, (3R)-1-[8-amino-1-(4-{[4-(trifluoromethyl)pyridin-2-yl]carbamoyl}phenyl)imidazo[1,5-a]pyrazin-3-yl]pyrrolidine-3-carboxylic acid]: the half-maximal inhibitory concentration (IC50) came to 2.6 nM in experiment [1] and 4700 nM in the experiment with HeLa cells (Homo sapiens, HeLa).

On to `Nc1nccn2c(-c3ccc(C(=O)O)[nH]3)nc(-c3ccc(C(=O)Nc4cc(C(F)(F)F)ccn4)cc3)c12` [Example 27, 5-[8-amino-1-(4-{[4-(trifluoromethyl)pyridin-2-yl]carbamoyl}phenyl)imidazo[1,5-a]pyrazin-3-yl]-1H-pyrrole-2-carboxylic acid], for which the IC50 amounted to 2 nM in experiment [1] and 10000 nM in the experiment with HeLa cells (Homo sapiens, HeLa).

For `COc1cc(C(=O)Nc2cc(C(F)(F)F)ccn2)ccc1-c1nc(C23CCC(C(=O)O)(CC2)CC3)n2ccnc(N)c12` [Example 171, 4-[8-amino-1-(2-methoxy-4-{[4-(trifluoromethyl)pyridin-2-yl]carbamoyl}phenyl)imidazo[1,5-a]pyrazin-3-yl]bicyclo[2.2.2] octane-1-carboxylic acid], the IC50 worked out at 0.29 nM in experiment [1] and 6880 nM with HeLa cells (Homo sapiens, HeLa).

As to `CC1(C)[C@H](C(=O)O)CC[C@@]1(C)c1nc(-c2ccc(C(=O)Nc3cc(C(F)(F)F)ccn3)cc2)c2c(N)nccn12` [Example 148, (1R,3R)-3-[8-amino-1-(4-{[4-(trifluoromethyl)pyridin-2-yl]carbamoyl}phenyl)imidazo[1,5-a]pyrazin-3-yl]-2,2,3-trimethylcyclopentane carboxylic acid], the IC50 in experiment [1] worked out at 7.2 nM; in the experiment on HeLa cells (Homo sapiens, HeLa), 10000 nM.

Consider `CCOc1cc(C(=O)Nc2cc(C(F)(F)F)n(C)n2)ccc1-c1nc([C@@H]2CC[C@@](C(=O)O)(C(C)C)C2)n2ccnc(N)c12` [Example 52, (1S,3R)-3-[8-amino-1-(2-ethoxy-4-{[1-methyl-5-(trifluoromethyl)-1H-pyrazol-3-yl]carbamoyl}phenyl)imidazo[1,5-a]pyrazin-3-yl]-1-(1-methylethyl) cyclopentane-carboxylic acid], for which the 50% inhibitory concentration (IC50) in experiment [1] was determined as 9 nM; in the experiment on HeLa cells (Homo sapiens, HeLa), 10000 nM.
